Data on 1 compound can be found in US9120893B1, “Alkoxy polycarbonates, bisphenol monomers and methods of making and using the same” (SABIC Global Technologies B.V., priority 2014, dated 2015).

Test [1] addresses T1, recombinant human estradiol receptors (rhER) alpha (α) (Homo sapiens, UniProt P03372).
T1 sequence (P03372 1-595): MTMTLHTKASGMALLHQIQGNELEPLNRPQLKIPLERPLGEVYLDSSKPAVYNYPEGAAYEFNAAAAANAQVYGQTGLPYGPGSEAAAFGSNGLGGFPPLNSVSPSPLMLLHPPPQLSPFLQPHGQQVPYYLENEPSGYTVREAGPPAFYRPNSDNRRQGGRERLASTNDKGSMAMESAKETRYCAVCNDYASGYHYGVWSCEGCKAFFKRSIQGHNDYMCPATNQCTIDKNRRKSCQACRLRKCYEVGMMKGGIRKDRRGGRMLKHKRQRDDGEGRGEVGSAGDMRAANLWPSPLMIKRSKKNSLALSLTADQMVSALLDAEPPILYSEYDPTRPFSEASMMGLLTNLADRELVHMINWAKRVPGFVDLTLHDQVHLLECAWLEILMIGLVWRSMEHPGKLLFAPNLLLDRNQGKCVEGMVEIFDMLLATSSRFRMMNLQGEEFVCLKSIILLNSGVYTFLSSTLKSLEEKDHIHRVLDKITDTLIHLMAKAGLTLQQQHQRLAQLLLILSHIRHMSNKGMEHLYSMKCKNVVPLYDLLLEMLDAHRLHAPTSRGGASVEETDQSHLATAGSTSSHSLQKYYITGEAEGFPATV
Nature of the test: in vitro competitive binding assay, displacement of radiolabeled 17b-estradiol, rhER alpha. The following applies: result in words; highest concentration 2.5×E-4 M.

The target in test [2] is recombinant human estradiol receptors (rhER) beta 1 (β1) (Homo sapiens, UniProt Q92731). Nature of the test: in vitro competitive binding assay, displacement of radiolabeled 17b-estradiol, rhER beta 1. The settings on record: result in words; highest concentration 2.5×E-4 M.
Chain of recombinant human estradiol receptors (rhER) beta 1 (β1) (Q92731 whole entry): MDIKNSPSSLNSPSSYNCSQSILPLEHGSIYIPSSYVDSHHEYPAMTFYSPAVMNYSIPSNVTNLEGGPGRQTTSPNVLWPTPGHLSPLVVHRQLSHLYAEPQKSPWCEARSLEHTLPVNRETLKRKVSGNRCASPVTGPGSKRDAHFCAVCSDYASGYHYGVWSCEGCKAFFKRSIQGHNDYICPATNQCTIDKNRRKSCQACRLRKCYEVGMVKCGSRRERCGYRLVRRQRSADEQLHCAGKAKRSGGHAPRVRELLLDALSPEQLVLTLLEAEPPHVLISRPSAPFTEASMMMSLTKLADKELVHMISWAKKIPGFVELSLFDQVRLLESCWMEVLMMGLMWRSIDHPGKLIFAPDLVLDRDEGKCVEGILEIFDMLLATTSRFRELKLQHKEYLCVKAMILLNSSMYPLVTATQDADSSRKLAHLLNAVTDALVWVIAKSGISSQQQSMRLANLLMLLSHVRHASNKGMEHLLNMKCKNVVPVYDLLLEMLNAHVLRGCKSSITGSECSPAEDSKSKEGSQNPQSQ

Take `COc1cc(C(C)(C)c2ccc(O)c(OC)c2)ccc1O` [compound 1, 4,4′ (2,2′-isoPropylidene)-Bis(ortho Methoxy)Phenol (PBMP)]: the “estradiol binding activity, alpha receptor binding” value in test [1] was “no estradiol binding activity”. Besides, the “estradiol binding activity, beta receptor binding” value in test [2] is on record as “no estradiol binding activity”.
